Consider 13 compounds from US9675592B2, “Methods and compositions for bacteria infections” (priority 2013, dated 2017).

Assay [1] concerns the target cytoplasmic domain of VraS (VraS-C) (Staphylococcus aureus, UniProt Q99SZ7). The experiment in a line: biochemical. The assay is classed as binding. To be noted: for binding to VraS-C: SPR; for RUmax VraS / Kd: new run with His-tagged VraS; for Kd: NB = No Binding, read-out: KD VraS.
The target of assay [2] is VraR (Staphylococcus aureus, UniProt Q7A4R9). The experiment in a line: biochemical. The assay is classed as binding. As to conditions: for RUmax VraR / Kd: His-tagged VraR; for Kd: NB = No Binding; for binding to VraR: SPR.
Chain of VraR (Q7A4R9 whole entry): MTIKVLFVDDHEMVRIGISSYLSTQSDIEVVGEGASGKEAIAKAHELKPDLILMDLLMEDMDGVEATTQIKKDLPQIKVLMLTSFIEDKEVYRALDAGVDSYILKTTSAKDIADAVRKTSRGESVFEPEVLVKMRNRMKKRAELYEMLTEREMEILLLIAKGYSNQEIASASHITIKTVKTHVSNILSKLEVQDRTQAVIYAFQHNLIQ
Assay [3] deals with PurC (unrelated protein, control) (Bacillus anthracis, UniProt Q81ZH5). The format is binding. To be noted: read-out: KD PurC (control).
Chain of PurC (unrelated protein, control) (Q81ZH5 whole entry, looked up): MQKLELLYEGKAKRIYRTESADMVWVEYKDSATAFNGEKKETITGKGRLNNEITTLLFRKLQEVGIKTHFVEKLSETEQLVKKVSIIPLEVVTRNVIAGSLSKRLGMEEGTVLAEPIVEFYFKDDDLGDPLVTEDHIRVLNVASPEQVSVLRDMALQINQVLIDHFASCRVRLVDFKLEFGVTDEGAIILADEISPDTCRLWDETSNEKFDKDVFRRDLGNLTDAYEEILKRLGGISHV
Assay [4] concerns test strain 923 pPvra-lux (USA300 MRSA). The experiment in a line: Primary screen, relative growth in presence of oxacillin. As to conditions: compound 10 μM with oxacillin 2 μg/mL, absorbance 24 h, <0.50 = dead cells = hit.
The subject of assay [5] is vraSR promoter (Pvra-lux reporter in strain 923). Put plainly: Primary screen, relative luminescence (vraSR expression).

Chain of cytoplasmic domain of VraS (VraS-C) (Q99SZ7 70-347): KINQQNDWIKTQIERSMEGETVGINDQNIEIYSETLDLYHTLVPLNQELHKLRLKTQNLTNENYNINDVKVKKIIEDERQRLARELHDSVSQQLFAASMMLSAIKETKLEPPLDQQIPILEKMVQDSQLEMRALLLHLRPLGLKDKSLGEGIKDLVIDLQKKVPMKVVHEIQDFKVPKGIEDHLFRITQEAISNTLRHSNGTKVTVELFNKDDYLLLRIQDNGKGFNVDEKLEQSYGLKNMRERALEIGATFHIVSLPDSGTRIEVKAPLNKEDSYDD

As to `O=C(Nc1nnc(-c2cc(Cl)sc2Cl)o1)c1nc2ccccc2s1` [F1374-2739], in assay [1], the “binding to VraS-C” value is given as “bound”, the “RUmax VraS” value came out at 69.1 ± 6.2 and the Kd (commonly the equilibrium constant for the complex coming apart) was found to be 69.6 ± 11.6 µM. Also, in assay [2], the “RUmax VraR” value came to 80.3 ± 8.8, the Kd was determined as 54.4 ± 12.2 µM and the “binding to VraR” value is given as “bound”. Further, in assay [3], the Kd is more than 100 µM.
On to `O=C(Nc1nnc(-c2ccc(Br)cc2)o1)c1ccc(Cl)s1` [F2518-0474], for which, in assay [1], the “binding to VraS-C” value is on record as “bound”, the “RUmax VraS” value is reported as 52.9 ± 12.8 and the Kd worked out at 79.5 ± 34.6 µM. For the same compound, in assay [2], the “RUmax VraR” value was 27.5 ± 2.4 and the affinity, expressed as Kd, was 22.2 ± 5.4 µM. Moreover, the Kd in assay [3] was more than 100 µM. The “RG avg (relative growth)” value in assay [4] stood at 0.01. The “RL avg (relative luminescence)” value in assay [5] is recorded as −0.01.
Regarding `Cc1ccc(C)c(-c2nnc(NC(=O)c3ccccc3F)o2)c1` [F2518-0382], the Kd in assay [1], in assay [2] and in assay [3] was more than 100 µM throughout.
Consider `CS(=O)(=O)c1ccc(-c2nnc(NC(=O)c3ccc(Cl)s3)o2)cc1` [F2645-0790], for which the Kd in assay [1], in assay [2] and in assay [3] was more than 100 µM throughout.
For `Cc1ccc(-c2nnc(NC(=O)c3ccccc3Cl)o2)c(C)c1` [F2518-0150], the Kd in assay [1], in assay [2] and in assay [3] was more than 100 µM in each case.
Regarding `O=C(Nc1nnc(-c2ccc(F)cc2)o1)c1cccc(Br)c1` [F1374-0119], the Kd in assay [1], in assay [2] and in assay [3] was more than 100 µM each time.
As for `Cc1ccc(-c2nnc(NC(=O)c3nc4ccccc4s3)o2)c(C)c1` [F2518-0183], the Kd in assay [1], in assay [2] and in assay [3] was more than 100 µM throughout.
As to `O=C(Nc1nnc(-c2ccc3c(c2)CCCC3)o1)c1cccc(C(F)(F)F)c1` [F0608-0575], the Kd in assay [1], in assay [2] and in assay [3] was more than 100 µM throughout.
As to `O=C(Nc1nnc(-c2ccccc2Cl)o1)c1cccc(C(F)(F)F)c1` [F1374-0037], in assay [1], the “binding to VraS-C” value was “bound”, the “RUmax VraS” value was 45.1 ± 3.2 and the Kd is 25.8 ± 4.8 µM. The same compound showed a Kd in assay [2] of more than 100 µM. The Kd in assay [3] is more than 100 µM. In assay [4], the “RG avg (relative growth)” value worked out at 0.02. The “RL avg (relative luminescence)” value in assay [5] is reported as 0.35.
`O=C(Nc1nnc(-c2ccc(Br)cc2)o1)c1cccc(C(F)(F)F)c1` [F2518-0477]: the Kd in assay [1], in assay [2] and in assay [3] was more than 100 µM throughout.
On to `Cc1ccc(C)c(-c2nnc(NC(=O)c3nc4ccccc4s3)o2)c1` [F2518-0327], for which the Kd in assay [1] is more than 100 µM. In assay [2], the “RUmax VraR” value was 46.5 ± 2.9, the Kd was found to be 15.4 ± 6.4 µM and the “binding to VraR” value is recorded as “bound”. For the same compound, the Kd in assay [3] was more than 100 µM.
With `COc1cccc(-c2nnc(NC(=O)c3ccc(Cl)s3)o2)c1` [F1374-0351], the Kd in assay [1], in assay [2] and in assay [3] was more than 100 µM each time.
As to `O=C(Nc1nnc(-c2cc(Cl)ccc2Cl)o1)c1ccc(Cl)s1` [F2518-0042], the Kd in assay [1], in assay [2] and in assay [3] was more than 100 µM throughout.
